± gives the standard deviation of the averaged measurements.
What was measured:
[1] = compound: C[C@@H]1CN(CC(=O)Nc2ccc3c(c2)Cc2cccc(-c4cc(=O)cc(N5CCOCC5)o4)c2S3)C[C@H](C)O1; assay: surviving fraction relative to DMSO-only wells; higher = less growth inhibition; conditions: exposure time: 5 days
Procedure, shortened: (§1)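 A line counted only if its three screens reached replicate Pearson r >0.7 and median Z' >0.3. Tumour cells in log phase were seeded at 250–500 per well in 384-well plates and, after 24 hours, kept in continuous contact with inhibitors at 0.5, 1, 5, 10, 50, 100, 500 and 1000 nM for five days. Surviving fraction was taken from CellTiter-Glo luminescence relative to the median of DMSO-only wells.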

[2] = compound: Cn1ncnc1[C@H]1c2n[nH]c(=O)c3cc(F)cc(c23)N[C@@H]1c1ccc(F)cc1 [BMN-673]; assay: as above; conditions: exposure time: 5 days
Procedure, shortened: as §1

Test System | surviving fraction ([1]; 0.5 nM) | surviving fraction ([1]; 1 nM) | surviving fraction ([1]; 5 nM) | surviving fraction ([1]; 10 nM) | surviving fraction ([1]; 50 nM) | surviving fraction ([1]; 100 nM) | surviving fraction ([1]; 500 nM) | surviving fraction ([1]; 1000 nM) | surviving fraction ([2]; 0.5 nM) | surviving fraction ([2]; 1 nM) | surviving fraction ([2]; 5 nM) | surviving fraction ([2]; 10 nM) | surviving fraction ([2]; 50 nM) | surviving fraction ([2]; 100 nM) | surviving fraction ([2]; 500 nM) | surviving fraction ([2]; 1000 nM)
22RV1 PROSTATE | 1.07 ± 0.068 | 1.07 ± 0.021 | 1.02 ± 0.045 | 1.04 ± 0.044 | 1.12 ± 0.07 | 1.12 ± 0.074 | 1.08 ± 0.09 | 1.08 ± 0.031 | 1.06 ± 0.073 | 1.01 ± 0.11 | 0.871 ± 0.14 | 0.776 ± 0.18 | 0.657 ± 0.09 | 0.64 ± 0.037 | 0.468 ± 0.061 | 0.324 ± 0.048
93VU HEADNECK | 0.955 ± 0.062 | 1.09 ± 0.041 | 1.07 ± 0.069 | 1.05 ± 0.029 | 0.968 ± 0.024 | 0.943 ± 0.067 | 0.893 ± 0.045 | 0.836 ± 0.035 | 1.07 ± 0.071 | 1.14 ± 0.11 | 1.07 ± 0.14 | 0.983 ± 0.056 | 0.98 ± 0.084 | 0.925 ± 0.018 | 0.806 ± 0.087 | 0.632 ± 0.053
143B BONE | 1.03 ± 0.034 | 0.994 ± 0.016 | 1.02 | 1.02 ± 0.03 | 1.03 ± 0.035 | 1.01 ± 0.013 | 1 ± 0.011 | 0.9405 ± 0.0064 | 1.08 ± 0.047 | 1.11 ± 0.086 | 1.1 ± 0.054 | 1.09 ± 0.073 | 1.11 ± 0.16 | 1.05 ± 0.064 | 0.733 ± 0.06 | 0.528 ± 0.052
A549 LUNG | 1.05 ± 0.049 | 1.05 ± 0.025 | 1.08 ± 0.02 | 1.08 ± 0.021 | 1.07 ± 0.012 | 1.098 ± 0.0099 | 1.1 ± 0.016 | 1.13 ± 0.032 | 1.08 ± 0.026 | 1.1 ± 0.014 | 1.08 ± 0.033 | 1.07 ± 0.028 | 1.13 ± 0.08 | 1.1 ± 0.025 | 1.05 ± 0.043 | 0.972 ± 0.048
ASKA SYNOVIAL | 1.17 ± 0.013 | 1.21 ± 0.12 | 1.26 ± 0.11 | 1.21 ± 0.093 | 1.17 ± 0.059 | 1.15 ± 0.1 | 1.13 ± 0.1 | 0.978 ± 0.14 | 0.846 ± 0.056 | 0.753 ± 0.041 | 0.625 ± 0.043 | 0.602 ± 0.024 | 0.54 ± 0.062 | 0.427 ± 0.036 | 0.342 ± 0.015 | 0.334 ± 0.016
BT20 BREAST | 1.04 ± 0.052 | 1.13 ± 0.044 | 1.1 ± 0.1 | 1.06 ± 0.081 | 0.843 ± 0.11 | 0.894 ± 0.089 | 0.902 ± 0.076 | 0.741 ± 0.045 | 1.22 ± 0.014 | 1.15 ± 0.11 | 1.04 ± 0.034 | 0.971 ± 0.052 | 0.88 ± 0.035 | 0.797 ± 0.074 | 0.673 ± 0.13 | 0.474 ± 0.08
BT549 BREAST | 1.1 ± 0.25 | 0.918 ± 0.16 | 0.996 ± 0.083 | 1.08 ± 0.11 | 0.738 ± 0.14 | 0.741 ± 0.14 | 0.774 ± 0.14 | 0.658 ± 0.27 | 1.07 ± 0.05 | 1.03 ± 0.019 | 1.03 ± 0.11 | 0.797 ± 0.044 | 0.755 ± 0.051 | 0.652 ± 0.079 | 0.438 ± 0.04 | 0.323 ± 0.019
C33A CERVIX | 0.963 ± 0.082 | 1.01 ± 0.1 | 1.06 ± 0.051 | 1.1 ± 0.074 | 1.06 ± 0.067 | 1.14 ± 0.14 | 0.973 ± 0.059 | 0.827 ± 0.1 | 0.995 ± 0.028 | 0.968 ± 0.019 | 0.744 ± 0.079 | 0.655 ± 0.046 | 0.422 ± 0.035 | 0.332 ± 0.051 | 0.19 ± 0.015 | 0.172 ± 0.023
CADOES1 SOFT TISSUE | 0.951 ± 0.15 | 0.965 ± 0.065 | 0.974 ± 0.07 | 0.981 ± 0.084 | 1.11 ± 0.055 | 0.995 ± 0.1 | 1.01 ± 0.096 | 1.02 ± 0.032 | 0.979 ± 0.076 | 0.942 ± 0.05 | 0.745 ± 0.18 | 0.653 ± 0.094 | 0.378 ± 0.054 | 0.29 ± 0.027 | 0.135 ± 0.033 | 0.073 ± 0.013
CAL51 BREAST | 0.954 ± 0.023 | 0.939 ± 0.028 | 1.02 ± 0.019 | 0.997 ± 0.069 | 1.01 ± 0.028 | 1.02 ± 0.027 | 0.922 ± 0.011 | 0.851 ± 0.026 | 0.941 ± 0.037 | 0.807 ± 0.065 | 0.548 ± 0.014 | 0.389 ± 0.021 | 0.219 ± 0.026 | 0.146 ± 0.027 | 0.0603 ± 0.01 | 0.0523 ± 0.0019
CAL72 BONE | 1.01 ± 0.015 | 1.06 ± 0.03 | 1.03 ± 0.011 | 1.03 ± 0.021 | 0.955 ± 0.021 | 0.97 ± 0.0097 | 0.897 ± 0.026 | 0.811 ± 0.026 | 1.08 ± 0.13 | 1.07 ± 0.027 | 1.07 ± 0.018 | 1.09 ± 0.09 | 1.07 ± 0.082 | 0.973 ± 0.22 | 0.776 ± 0.19 | 0.509 ± 0.21
CAL120 BREAST | 1.01 ± 0.029 | 1.02 ± 0.013 | 1.03 ± 0.02 | 1.04 ± 0.011 | 1.02 ± 0.022 | 1 ± 0.015 | 0.946 ± 0.046 | 0.87 ± 0.018 | 0.968 ± 0.033 | 0.915 ± 0.067 | 0.798 ± 0.05 | 0.676 ± 0.035 | 0.591 ± 0.014 | 0.506 ± 0.062 | 0.43 ± 0.021 | 0.425 ± 0.035
CASKI CERVIX | 0.925 ± 0.041 | 0.982 ± 0.035 | 0.963 ± 0.019 | 0.989 ± 0.07 | 0.91 ± 0.047 | 0.855 ± 0.057 | 0.759 ± 0.04 | 0.625 ± 0.037 | 0.942 ± 0.03 | 0.888 ± 0.063 | 0.9 ± 0.036 | 0.88 ± 0.06 | 0.858 ± 0.054 | 0.821 ± 0.068 | 0.594 ± 0.0084 | 0.502 ± 0.02
CHLA90 AUTONOMIC GANGLIA | 1.03 ± 0.052 | 1.07 ± 0.045 | 0.994 ± 0.07 | 1.08 ± 0.07 | 0.979 ± 0.0078 | 0.999 ± 0.068 | 1 ± 0.11 | 0.966 ± 0.041 | 0.939 ± 0.01 | 0.982 ± 0.068 | 0.906 ± 0.051 | 0.897 ± 0.045 | 0.938 ± 0.086 | 0.906 ± 0.083 | 0.814 ± 0.04 | 0.714 ± 0.026
CME SYNOVIAL | 1.35 ± 0.097 | 1.44 ± 0.15 | 1.25 ± 0.042 | 1.28 ± 0.13 | 1.11 ± 0.085 | 1.02 ± 0.054 | 0.689 ± 0.11 | 0.388 ± 0.014 | 0.831 ± 0.068 | 0.528 ± 0.039 | 0.234 ± 0.018 | 0.211 ± 0.035 | 0.243 ± 0.024 | 0.211 ± 0.012 | 0.201 ± 0.0059 | 0.285 ± 0.0076
COLO320DM LARGE INTESTINE | 1.04 ± 0.11 | 1.06 ± 0.12 | 1.05 ± 0.13 | 1.07 ± 0.059 | 1.04 ± 0.033 | 1.09 ± 0.037 | 1.03 ± 0.056 | 0.99 ± 0.015 | 1.16 ± 0.049 | 1.1 ± 0.11 | 1.01 ± 0.038 | 0.951 ± 0.04 | 0.781 ± 0.061 | 0.704 ± 0.059 | 0.606 ± 0.0097 | 0.5533 ± 0.0029
DU4475 BREAST | 1.12 ± 0.23 | 1.08 ± 0.011 | 0.951 ± 0.13 | 1.18 ± 0.12 | 0.794 ± 0.22 | 1.12 ± 0.36 | 1.31 ± 0.55 | 1.05 ± 0.23 | 1.1 ± 0.049 | 0.916 ± 0.11 | 0.57 ± 0.055 | 0.456 ± 0.071 | 0.325 ± 0.068 | 0.278 ± 0.054 | 0.284 ± 0.052 | 0.293 ± 0.027

Source: the supplement of paper PMC6045584
